Data as given in patent publication US9862701B2, “Inhibitors of KRAS G12C mutant proteins” (Araxes Pharma LLC, priority 2014, dated 2018).

target: T1, KRAS G12C 1-169, his-tagged protein, GDP-loaded (Homo sapiens, UniProt P01116, G12C); assay: Biochemical assay: covalent binding to KRAS G12C, analyzed by mass spectrometry; details: percent of KRAS G12C protein covalently bound to test compound; 2 μm protein, room temperature
T1 construct: KRAS G12C 1-169, his-tagged protein, GDP-loaded
Description: Test compounds were prepared as 10 mM stock solutions in DMSO (Fisher cat# BP-231-100). KRAS G12C 1-169, his-tagged protein, GDP-loaded was diluted to 2 μm in buffer (20 mM Hepes, 150 mM NaCl, 1 mM MgCl2). Compounds were tested for activity as follows:
Compounds were diluted to 50× final test concentration in DMSO in 96-well storage plates. Compound stock solutions were vortexed before use and observed carefully for any sign of precipitation. Dilutions were as follow: • For 100 μM final compound concentration, compounds were diluted to 5000 μM (5 μl 10 mM compound stock+5 μl DMSO and mixed well by pipetting. • For 30 μM final compound concentration, compounds were diluted to 1500 μM (3 μl 10 mM compound stock+17 μl DMSO) and mixed well by pipetting. • For 10 μM final compound concentration, compounds were diluted to 500 μM (2 μl 10 mM compound stock+38 μl DMSO) and mixed well by pipetting. 49 μl of the stock protein solution was added to each well of a 96-well PCR plate (Fisher cat#1423027). 1 μl of the diluted 50× compounds were added to appropriate wells in the PCR plate using 12-channel pipettor. Reactions were mixed carefully and thoroughly by pipetting up/down with a 200 μl multi-channel pipettor. The plate was sealed well with aluminum plate seal, and stored in drawer at room temperature for 24 hrs. 5 μl of 2% formic acid (Fisher cat# A117) in DI H2O was then added to each well followed by mixing with a pipette. The plate was then resealed with aluminum seal and stored on dry ice until analyzed as described below.
The above described assays were analyzed by mass spectrometry according to the following procedure:
The MS instrument is set to positive polarity, 2 GHz resolution, and low mass (1700) mode and allowed to equilibrate for 30 minutes. The instrument is then calibrated, switched to acquisition mode and the appropriate method loaded.
After another 30 minute equilibration time, a blank batch (i.e., buffer) is run to ensure equipment is operating properly. The samples are thawed at 37° C. for 10 minutes, briefly centrifuged, and transfer to the bench top. Wells A1 and H12 are spiked with 1 uL 500 uM internal standard peptide, and the plates centrifuged at 2000×g for 5 minutes. The method is then run and masses of each individual well recorded.
The masses (for which integration data is desired) for each well are pasted into the platemap and exported from the analysis. Masses for the internal standards are exported as well. The data at 50 ppm is extracted for the +19 charge state, and identity of well A1 is assigned using the internal standard spike and integrated. Peak data is exported as a TOF list and the above steps are repeated individually, for the +20, 21, 22, 23, 24, and 25 charge states.

Q: Which Binding % does the source give for `C=CC(=O)N1CCN(c2ccc(-c3cc(O)ccc3Cl)cc2)CC1` [Compound 1, 1-(4-(2′-chloro-5′-hydroxybiphenyl-4-yl)piperazin-1-yl)prop-2-en-1-one] here?
A: Its Binding % is “++++ (indicates binding activity greater than 30%)”.

Q: `C=CC(=O)N1CCN(c2ccc(-c3cc(O)cc(Cl)c3)cc2)CC1` [Compound 2, 1-(4-(3′-chloro-5′-hydroxybiphenyl-4-yl)piperazin-1-yl)prop-2-en-1-one] was tested. Which Binding % did it give?
A: The Binding % was “++ (indicates binding activity greater than 10% and up to 20%)”.

Q: For `C=CC(=O)N1CCN(c2ccc(-c3cc(OC)cc(Cl)c3Cl)cc2)CC1` [Compound 3, 1-(4-(2′,3′-dichloro-5′-methoxybiphenyl-4-yl)piperazin-1-yl)prop-2-en-1-one], which Binding % is on record?
A: The Binding % was “+ (indicates binding activity from 5% to 10%)”.

Q: `C=CC(=O)N1CCN(c2ccc(-c3cc(O)cc(Cl)c3Cl)cc2)CC1` [Compound 4, 1-(4-(2′,3′-dichloro-5′-hydroxybiphenyl-4-yl)piperazin-1-yl)prop-2-en-1-one] was tested. Which Binding % did it give?
A: The Binding % was “+++ (indicates binding activity greater than 20% and up to 30%)”.

Q: Which Binding % does the source give for `C=CC(=O)N1CCN(c2ccc(-c3cc(O)ccc3CC)cc2)CC1` [Compound 5, 1-(4-(2′-ethyl-5′-hydroxybiphenyl-4-yl)piperazin-1-yl)prop-2-en-1-one] here?
A: Its Binding % is “++++ (indicates binding activity greater than 30%)”.

Q: For `C=CC(=O)N1CCC(n2ccc(-c3cc(O)ccc3Cl)cc2=O)CC1` [Compound 6, 1-(1-acryloylpiperidin-4-yl)-4-(2-chloro-5-hydroxyphenyl)pyridin-2(1H)-one], which Binding % is on record?
A: The Binding % was “++ (indicates binding activity greater than 10% and up to 20%)”.

Q: With `C=CC(=O)N1CCN(c2ncc(-c3cc(O)ccc3Cl)cn2)CC1` [Compound 7, 1-(4-(5-(2-chloro-5-hydroxyphenyl)pyrimidin-2-yl)piperazin-1-yl)prop-2-en-1-one] as the compound, how does the Binding % read?
A: Its Binding % is “++ (indicates binding activity greater than 10% and up to 20%)”.

Q: With `C=CC(=O)N1CCN(c2ccc(-c3cc(O)ccc3Cl)cn2)CC1` [Compound 8, 1-(4-(5-(2-chloro-5-hydroxyphenyl)pyridin-2-yl)piperazin-1-yl)prop-2-en-1-one] as the compound, how does the Binding % read?
A: The Binding % was “++ (indicates binding activity greater than 10% and up to 20%)”.

Q: Which Binding % does the source give for `C=CC(=O)N1CCN(c2ccc(-c3cc(O)ccc3Cl)cc2C#N)CC1` [Compound 9, 4-(4-acryloylpiperazin-1-yl)-2′-chloro-5′-hydroxybiphenyl-3-carbonitrile] here?
A: Its Binding % is “++++ (indicates binding activity greater than 30%)”.

Q: With `C=CC(=O)N1CCN(c2ccc(-c3cc(O)ccc3Cl)c(C(N)=O)c2)CC1` [Compound 10, 4-(4-acryloylpiperazin-1-yl)-2′-chloro-5′-hydroxybiphenyl-2-carboxamide] as the compound, how does the Binding % read?
A: The Binding % was “+++ (indicates binding activity greater than 20% and up to 30%)”.

Q: How did the Binding % turn out when `C=CC(=O)N1CCN(c2ccc(-c3cc(O)ccc3Cl)c(C#N)c2)CC1` [Compound 11, 4-(4-acryloylpiperazin-1-yl)-2′-chloro-5′-hydroxybiphenyl-2-carbonitrile] was run?
A: Its Binding % is “+++ (indicates binding activity greater than 20% and up to 30%)”.

Q: With `C=CC(=O)N1CCC(Cn2ccc(-c3cc(O)ccc3Cl)cc2=O)CC1` [Compound 12, 1-((1-acryloylpiperidin-4-yl)methyl)-4-(2-chloro-5-hydroxyphenyl)pyridin-2(1H)-one] as the compound, how does the Binding % read?
A: The Binding % was “++ (indicates binding activity greater than 10% and up to 20%)”.

Q: Which Binding % does the source give for `C=CC(=O)N1CCC(Cn2ccc(-c3ccccc3C(F)(F)F)cc2=O)CC1` [Compound 13, 1-((1-acryloylpiperidin-4-yl)methyl)-4-(2-(trifluoromethyl)phenyl) pyridin-2(1H)-one] here?
A: Its Binding % is “+ (indicates binding activity from 5% to 10%)”.

Q: Which Binding % does the source give for `C=CC(=O)N1CCN(c2ccc(-c3cc(O)ccc3Cl)cc2C(N)=O)CC1` [Compound 14, 4-(4-acryloylpiperazin-1-yl)-2′-chloro-5′-hydroxybiphenyl-3-carboxamide] here?
A: The Binding % was “+++ (indicates binding activity greater than 20% and up to 30%)”.

Q: How did the Binding % turn out when `C=CC(=O)N1CCN(Cc2ccc(-c3ccccc3C(F)(F)F)cc2)CC1` [Compound 15, 1-(4-((2′-(trifluoromethyl)biphenyl-4-yl)methyl)piperazin-1-yl)prop-2-en-1-one] was run?
A: Its Binding % is “+ (indicates binding activity from 5% to 10%)”.

Q: With `C=CC(=O)N1CCN(Cc2ccc(-c3c(C)ccc4[nH]ncc34)cc2)CC1` [Compound 16, 1-(4-(4-(5-methyl-1H-indazol-4-yl)benzyl)piperazin-1-yl)prop-2-en-1-one] as the compound, how does the Binding % read?
A: Its Binding % is “+ (indicates binding activity from 5% to 10%)”.

Q: With `C=CC(=O)N1CCN(Cc2ccc(-c3cc(O)ccc3Cl)cc2)CC1` [Compound 17, 1-(4-((2′-chloro-5′-hydroxybiphenyl-4-yl)methyl)piperazin-1-yl)prop-2-en-1-one] as the compound, how does the Binding % read?
A: The Binding % was “++ (indicates binding activity greater than 10% and up to 20%)”.

Q: Which Binding % does the source give for `C=CC(=O)N1CCN(Cc2ccc(-c3cc(O)ccc3Cl)c(Cl)c2)CC1` [Compound 18, 1-(4-((2,2′-dichloro-5′-hydroxybiphenyl-4-yl)methyl)piperazin-1-yl)prop-2-en-1-one] here?
A: The Binding % was “++ (indicates binding activity greater than 10% and up to 20%)”.

Q: Which Binding % does the source give for `C=CC(=O)N1CCN(Cc2ccc(-c3c(C)ccc4[nH]ncc34)c(Cl)c2)CC1` [Compound 19, 1-(4-(3-chloro-4-(5-methyl-1H-indazol-4-yl)benzyl)piperazin-1-yl)prop-2-en-1-one] here?
A: Its Binding % is “++ (indicates binding activity greater than 10% and up to 20%)”.

Q: `C=CC(=O)N1CCN(Cc2ccc(-c3cc(O)ccc3Cl)cc2O)CC1` [Compound 20, 1-(4-((2′-chloro-3,5′-dihydroxybiphenyl-4-yl)methyl)piperazin-1-yl)prop-2-en-1-one] was tested. Which Binding % did it give?
A: Its Binding % is “+++ (indicates binding activity greater than 20% and up to 30%)”.

Q: With `C=CC(=O)N1CCN(Cc2ccc(-c3ccccc3C(F)(F)F)cc2O)CC1` [Compound 21, 1-(4-((3-hydroxy-2′-(trifluoromethyl)biphenyl-4-yl)methyl)piperazin-1-yl)prop-2-en-1-one] as the compound, how does the Binding % read?
A: Its Binding % is “+ (indicates binding activity from 5% to 10%)”.

Q: How did the Binding % turn out when `C=CC(=O)N1CCN(c2ccc(-c3c(C)ccc4[nH]ncc34)cc2)CC1` [Compound 22, 1-(4-(4-(5-methyl-1H-indazol-4-yl)phenyl)piperazin-1-yl)prop-2-en-1-one] was run?
A: Its Binding % is “+ (indicates binding activity from 5% to 10%)”.

Q: How did the Binding % turn out when `C=CC(=O)N1CCN(c2ccc(-c3ccc(O)cc3Cl)cc2)CC1` [Compound 23, 1-(4-(2′-chloro-4′-hydroxybiphenyl-4-yl)piperazin-1-yl)prop-2-en-1-one] was run?
A: The Binding % was “+ (indicates binding activity from 5% to 10%)”.

Q: Which Binding % does the source give for `C=CC(=O)N1CCN(c2ccc(-c3cc(O)ccc3Cl)c3cn[nH]c23)CC1` [Compound 24, 1-(4-(4-(2-chloro-5-hydroxyphenyl)-1H-indazol-7-yl)piperazin-1-yl)prop-2-en-1-one] here?
A: The Binding % was “++++ (indicates binding activity greater than 30%)”.

Q: With `C=CC(=O)N1CCN(c2ccc(-c3c(O)cccc3F)cc2)CC1` [Compound 25, 1-(4-(2′-fluoro-6′-hydroxybiphenyl-4-yl)piperazin-1-yl)prop-2-en-1-one] as the compound, how does the Binding % read?
A: The Binding % was “+ (indicates binding activity from 5% to 10%)”.

Q: For `C=CC(=O)N1CCN(c2ccc(-c3c(C)ccc4[nH]ncc34)c3cn[nH]c23)CC1` [Compound 26, 1-(4-(5′-methyl-1H,1′H-4,4′-biindazol-7-yl)piperazin-1-yl)prop-2-en-1-one], which Binding % is on record?
A: Its Binding % is “+ (indicates binding activity from 5% to 10%)”.
